# Data reported in patent US20240382425A1 (BS BIOTECHNA SPOLKA Z OGRANICZONA ODPOWIEDZIALNOSCIA, priority 2021, published 2024).
# Key:
# [1] = Solubility of the deprotonated form of emetine in water; assay type: physicochemical
# Procedure: The total volume of titrant utilised was 1.5 mL. The precipitate was centrifuged at 6000 RPM for 20 minutes and separated from the solution. […] The precipitate was dried in a vacuum dryer at 30° C., 100 mbar pressure for 5 h and used in the next synthetic steps.
# [2] = system: MERS and SARS coronaviruses; conditions: lowest among over 290 drugs tested; cited from earlier work
smiles,measurement,setting,value
CC[C@H]1CN2CCc3cc(OC)c(OC)cc3[C@@H]2C[C@@H]1C[C@H]1NCCc2cc(OC)c(OC)cc21 [emetine],solubility,[1],1790 µg/mL
same,EC50,[2],< 20 nM
